Test system: 1K1C hypertensive dogs
Assay: Haemodynamic, renal and hormonal effects in conscious 1-kidney-1-clip hypertensive dogs
Format: in vivo
Protocol: The studies described in this experiment were conducted in dogs that had been rendered hypertensive by prior unilateral nephrectomy and constriction of the remaining renal artery. This model is characterized by normal basal levels of plasma renin activity and is relatively resistant to the anti-hypertensive activity of angiotensin converting enzyme inhibitors and AT1 receptor antagonists.
The following experiments were conducted in fasted 1K1C hypertensive dogs lightly restrained in standard canine slings. An indwelling arterial catheter was accessed via a subcutaneous port for measurement of blood pressure via a Gould-Statham pressure transducer. Mean arterial pressure (MAP) was continuously recorded on a Gould chart writer and stored electronically using a Po-Ne-Mah data acquisition system. During each study, urine was collected at 20 minute intervals via a Foley bladder catheter for determination of urine volume. The concentrations of urinary sodium and potassium were measured using ion-selective electrodes and their rates of urinary excretion (µEq/min) were calculated. Glomerular filtration rate (GFR) and effective renal plasma flow (ERPF) were determined by the renal clearances of exogenous creatinine and para-aminohippuric acid (PAH), respectively. The concentrations of creatinine and PAH in sequential samples of urine and plasma were determined by spectrophotometric assays and the clearances were calculated by the standard formula.
Arterial blood samples were drawn at the end of the control period and at 60 minute intervals thereafter for determination of the plasma concentrations of atrial natriuretic peptide (ANP), cyclic GMP and plasma renin activity (PRA) by separate radioimmunoassays. The plasma and urine samples were preserved and the assays were conducted according to standard radioimmunoassay procedures. Urinary excretion rates of cyclic GMP and ANP were calculated and expressed as pmol/min and fmol/min, respectively.
In each study, baseline measurements were obtained during two 20 minute control periods. One of the treatments was then administered and sampling continued at 20 minute intervals for three hours.
To minimize inter-animal variability, each data point was expressed as the change from the average control value for that parameter. Significant differences among treatments were identified by analysis of variance for repeated measures. […] Results are given as mean ± SEM.

[1] = 20 min after treatment, 30 µmol/kg iv of each agent
[2] = 40 min after treatment, 30 µmol/kg iv of each agent
[3] = 60 min after treatment, 30 µmol/kg iv of each agent
[4] = 80 min after treatment, 30 µmol/kg iv of each agent
[5] = 100 min after treatment, 30 µmol/kg iv of each agent
[6] = 120 min after treatment, 30 µmol/kg iv of each agent
[7] = 140 min after treatment, 30 µmol/kg iv of each agent
[8] = 160 min after treatment, 30 µmol/kg iv of each agent
[9] = 180 min after treatment, 30 µmol/kg iv of each agent

CCCCC1=NC2(CCCC2)C(=O)N1Cc1ccc(-c2ccccc2-c2nnn[nH]2)cc1 [BMS 186295, 2-butyl-6,7,8,9-tetrahydro-3-[[2'-(1H-tetrazol-5-yl)[1,1'-biphenyl]-4-yl]-methyl]-1,3-diazaspiro[4.4]nonan-4-one]
increase in the amount of sodium excreted during the 3 hours after injection (30 µmol/kg iv of each agent, cumulative over 3 hours): 5.4±1.0 mEq/3 hr | ANP Excretion, Change from control [1]: -0.7 ± 0.5 fmol/min | Cyclic GMP Excretion, Change from control [1]: -372 ± 240 pmol/min | Effective Renal Plasma Flow, Change from control [1]: -68 ± 30 mL/min | Glomerular Filtration Rate, Change from control [1]: -4 ± 2 mL/min | Mean Arterial Pressure, Change from control [1]: -1±1 mm Hg | Sodium Excretion, Change from control [1]: 23±9 µEq/min | Urine Volume, Change from control [1]: 0.01 ± 0.07 mL/min | ANP Excretion, Change from control [2]: -0.6 ± 0.5 fmol/min | Cyclic GMP Excretion, Change from control [2]: -277 ± 255 pmol/min | Effective Renal Plasma Flow, Change from control [2]: -54 ± 35 mL/min | Glomerular Filtration Rate, Change from control [2]: -2 ± 5 mL/min | Mean Arterial Pressure, Change from control [2]: -10±1 mm Hg | Sodium Excretion, Change from control [2]: 41±13 µEq/min | Urine Volume, Change from control [2]: 0.09 ± 0.14 mL/min | ANP Excretion, Change from control [3]: -0.2 ± 0.3 fmol/min | Cyclic GMP Excretion, Change from control [3]: -150 ± 203 pmol/min | Effective Renal Plasma Flow, Change from control [3]: -35 ± 24 mL/min | Glomerular Filtration Rate, Change from control [3]: 6 ± 0 mL/min | Mean Arterial Pressure, Change from control [3]: -8±2 mm Hg | Plasma Renin Activity, Change from control [3]: 1.28±0.51 pmol AI/ml/hr | Sodium Excretion, Change from control [3]: 36±8 µEq/min | Urine Volume, Change from control [3]: 0.12 ± 0.07 mL/min | ANP Excretion, Change from control [4]: -0.4 ± 0.3 fmol/min | Cyclic GMP Excretion, Change from control [4]: -309 ± 199 pmol/min | Effective Renal Plasma Flow, Change from control [4]: -13 ± 9 mL/min | Glomerular Filtration Rate, Change from control [4]: 5 ± 2 mL/min | Mean Arterial Pressure, Change from control [4]: -5±2 mm Hg | Sodium Excretion, Change from control [4]: 27±6 µEq/min | Urine Volume, Change from control [4]: 0.05 ± 0.06 mL/min | ANP Excretion, Change from control [5]: -0.6 ± 0.4 fmol/min | Cyclic GMP Excretion, Change from control [5]: -266 ± 193 pmol/min | Effective Renal Plasma Flow, Change from control [5]: -1 ± 10 mL/min | Glomerular Filtration Rate, Change from control [5]: 3 ± 4 mL/min | Mean Arterial Pressure, Change from control [5]: -4±1 mm Hg | Sodium Excretion, Change from control [5]: 22±3 µEq/min | Urine Volume, Change from control [5]: -0.02 ± 0.09 mL/min | ANP Excretion, Change from control [6]: -0.5 ± 0.4 fmol/min | Cyclic GMP Excretion, Change from control [6]: -283 ± 236 pmol/min | Effective Renal Plasma Flow, Change from control [6]: -8 ± 17 mL/min | Glomerular Filtration Rate, Change from control [6]: 4 ± 3 mL/min | Mean Arterial Pressure, Change from control [6]: -1±2 mm Hg | Plasma Renin Activity, Change from control [6]: 1.49±0.57 pmol AI/ml/hr | Sodium Excretion, Change from control [6]: 30±4 µEq/min | Urine Volume, Change from control [6]: -0.02 ± 0.10 mL/min | ANP Excretion, Change from control [7]: -0.6 ± 0.4 fmol/min | Cyclic GMP Excretion, Change from control [7]: -449 ± 206 pmol/min | Effective Renal Plasma Flow, Change from control [7]: 8 ± 3 mL/min | Glomerular Filtration Rate, Change from control [7]: 0 ± 5 mL/min | Mean Arterial Pressure, Change from control [7]: -1±2 mm Hg | Sodium Excretion, Change from control [7]: 28±7 µEq/min | Urine Volume, Change from control [7]: -0.07 ± 0.12 mL/min | ANP Excretion, Change from control [8]: -0.5 ± 0.4 fmol/min | Cyclic GMP Excretion, Change from control [8]: -391 ± 199 pmol/min | Effective Renal Plasma Flow, Change from control [8]: -14 ± 12 mL/min | Glomerular Filtration Rate, Change from control [8]: 0 ± 7 mL/min | Mean Arterial Pressure, Change from control [8]: 0±2 mm Hg | Sodium Excretion, Change from control [8]: 30±7 µEq/min | Urine Volume, Change from control [8]: -0.07 ± 0.16 mL/min | ANP Excretion, Change from control [9]: -0.6 ± 0.4 fmol/min | Cyclic GMP Excretion, Change from control [9]: -611 ± 346 pmol/min | Effective Renal Plasma Flow, Change from control [9]: -12 ± 11 mL/min | Glomerular Filtration Rate, Change from control [9]: 0 ± 4 mL/min | Mean Arterial Pressure, Change from control [9]: -1±3 mm Hg | Plasma Renin Activity, Change from control [9]: 1.24±0.62 pmol AI/ml/hr | Sodium Excretion, Change from control [9]: 30±2 µEq/min | Urine Volume, Change from control [9]: -0.02 ± 0.07 mL/min | ANP Excretion (Control, before treatment): 1.5 ± 0.6 fmol/min | Cyclic GMP Excretion (Control, before treatment): 1122 ± 389 pmol/min | Effective Renal Plasma Flow (Control, before treatment): 127 ± 41 mL/min | Glomerular Filtration Rate (Control, before treatment): 45 ± 10 mL/min | Mean Arterial Pressure (Control, before treatment): 157±7 mm Hg | Plasma Renin Activity (Control, before treatment): 0.55±0.07 pmol AI/ml/hr | Sodium Excretion (Control, before treatment): 18±2 µEq/min | Urine Volume (Control, before treatment): 0.43 ± 0.16 mL/min | sodium excretion, effect in words (summary of TABLE 2, 30 µmol/kg iv of each agent, 3 hours): increased | urine volume, effect in words (summary of TABLE 3, 30 µmol/kg iv of each agent, 3 hours): increased | Urinary excretion of ANP, effect in words (summary of TABLE 6, 30 µmol/kg iv of each agent): did not affect | PRA, effect in words (summary of TABLE 8, 30 µmol/kg iv of each agent): significantly increased | mean arterial pressure (MAP), effect in words (summary of Table 1, 30 µmol/kg iv of each agent, 3 hours): signigicantly reduced

— patent EP0726072A2, “Composition for the treatment of hypertension and congestive heart failure, containing an angiotensin II antagonist and an endopeptidase inhibitor” (BRISTOL-MYERS SQUIBB COMPANY, priority 1995, dated 1996)
